Measurements taken from patent publication US10493060B2, “Spirocyclic compounds” (ZENO ROYALTIES & MILESTONES, LLC, priority 2015, dated 2019).

Legend:
A375 (melanoma) cells = assay: Proliferation assay (CellTiter-Glo), A375; assay type: cell-based; conditions: Homo sapiens, A-375, 72 h, 3 days
Description: (§1) A375 (melanoma), Colo-205 (colon cancer), Miapaca (pancreatic), HPAFII (pancreatic), sNF02.0 (neurofibromatosis type 1), sNF96.2 (neurofibromatosis type 1) and 8505 (Thyroid) cells were grown and maintained in RPMI-1640 medium containing 100 U/mL penicillin-streptomycin and 10% fetal bovine serum. Cells were in growth medium in 96-well opaque-walled clear bottom plates and incubated the in the CO2 incubator overnight before treatment. Cells were treated with compounds diluted in DMSO and a 10 point 3-fold serial dilutions were done. Plates were placed in 37° C., 5% CO2 for to incubate for 3 days. Before they were developed by adding 100 μL of CellTiter-Glo reagent (Promega) to the assay plate, plates were shaken briefly for 2 mins and allowed to incubate at rt for 10 mins. The bottom of the plates was pasted with white back seal and luminescence was recorded with Flexstation3 with setting of luminescence, integration time 500 ms.

[1] = tested on: sNF02.2 (neurofibromatosis type 1) cells; assay: Proliferation assay (CellTiter-Glo), sNF02.2; assay type: cell-based; conditions: 72 h, sNF02.2 cells, 3 days
Description: as §1

[2] = tested on: Mia Paca-2 (pancreatic) cells; assay: Proliferation assay (CellTiter-Glo), Mia Paca-2; assay type: cell-based; conditions: Homo sapiens, 72 h, Mia Paca-2 cells, 3 days
Description: as §1

Activated ERK1 = Activated ERK1 (Homo sapiens (Human), UniProt P27361); assay: Active ERK1 kinase assay (Mobility Shift Assay); assay type: biochemical
Procedure, shortened: (§2)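 ERK1 or ERK2 premixed with compound for 30 min at rt in 20 mM HEPES pH7.5, 0.01% Triton X-100, 2 mM DTT; reaction started with Fl-substrate, ATP and metal, run 1 h at rt. Microfluidic mobility-shift separation of product and substrate peptides; activity as P/(P+S) from peak heights.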

Activated ERK2 = Activated ERK2 (Homo sapiens (Human), UniProt P28482); assay: Active ERK2 kinase assay (Mobility Shift Assay); assay type: biochemical
Procedure, shortened: as §2

[3] = tested on: Colo-205 (colon cancer) cells; assay: Proliferation assay (CellTiter-Glo), Colo-205; assay type: cell-based; conditions: Homo sapiens, COLO 205, 72 h, Colo205 cells, 3 days
Description: as §1

[4] = tested on: sNF96.2 (neurofibromatosis type 1) cells; assay: Proliferation assay (CellTiter-Glo), sNF96.2; assay type: cell-based; conditions: 72 h, sNF96.2 cells, 3 days
Description: as §1

8505C (Thyroid) cells = assay: Proliferation assay (CellTiter-Glo), 8505C; assay type: cell-based; conditions: Homo sapiens, 72 h, 8505C cells, 3 days
Description: as §1

[5] = tested on: HPAFII (pancreatic) cells; assay: Proliferation assay (CellTiter-Glo), HPAFII; assay type: cell-based; conditions: Homo sapiens, HPAF-II, 72 h, 3 days
Description: as §1

Sequence of Activated ERK1 (P27361 whole entry): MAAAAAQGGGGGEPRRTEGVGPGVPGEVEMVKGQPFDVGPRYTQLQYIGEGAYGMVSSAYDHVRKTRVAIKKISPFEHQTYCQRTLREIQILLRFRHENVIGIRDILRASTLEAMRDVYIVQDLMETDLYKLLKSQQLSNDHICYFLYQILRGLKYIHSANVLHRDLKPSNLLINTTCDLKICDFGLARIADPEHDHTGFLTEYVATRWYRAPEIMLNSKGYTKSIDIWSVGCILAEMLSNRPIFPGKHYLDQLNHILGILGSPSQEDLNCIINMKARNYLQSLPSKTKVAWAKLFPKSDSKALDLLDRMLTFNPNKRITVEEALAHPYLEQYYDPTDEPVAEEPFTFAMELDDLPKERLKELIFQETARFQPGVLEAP
Sequence of Activated ERK2 (P28482 whole entry): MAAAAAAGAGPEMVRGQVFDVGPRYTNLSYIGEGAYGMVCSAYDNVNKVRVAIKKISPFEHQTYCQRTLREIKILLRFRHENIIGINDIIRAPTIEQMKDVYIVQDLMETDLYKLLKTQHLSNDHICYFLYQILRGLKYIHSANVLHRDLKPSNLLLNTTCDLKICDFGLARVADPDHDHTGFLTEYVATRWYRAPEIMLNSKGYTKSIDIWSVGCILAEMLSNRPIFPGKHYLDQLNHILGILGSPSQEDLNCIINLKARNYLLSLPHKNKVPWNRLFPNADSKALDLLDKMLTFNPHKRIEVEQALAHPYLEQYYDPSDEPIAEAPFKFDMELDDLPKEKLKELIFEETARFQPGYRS

| SMILES | IC50 (A375 (melanoma) cells) | IC50 [1] | IC50 [2] | IC50 (Activated ERK1) | IC50 (Activated ERK2) | IC50 [3] | IC50 [4] | IC50 (8505C (Thyroid) cells) | IC50 [5] |
| --- | --- | --- | --- | --- | --- | --- | --- | --- | --- |
| Cc1cc(-c2n[nH]c3ccc(N4CC[C@]5(CCN(CC(=O)N6CC=C(c7ccc(-c8ncn(C)n8)cc7)CC6)C5)C4=O)cc23)ccn1 [Example 8, (S)-7-(2-(4-(4-(1-Methyl-1H-1,2,4-triazol-3-yl)phenyl)-3,6-dihydropyridin-1(2H)-yl)-2-oxoethyl)-2-(3-(2-methylpyridin-4-yl)-1H-indazol-5-yl)-2,7-diazaspiro[4.4]nonan-1-one] | ≤ 500 nM | ≤ 500 nM | ≤ 500 nM | ≤ 50 nM | ≤ 50 nM | ≤ 500 nM | ≤ 500 nM | ≤ 500 nM | ≤ 500 nM |
| CC(C)Oc1ccc(-c2n[nH]c3ccc(N4CC[C@]5(CCN(CC(=O)N6CC=C(c7ccc(-c8ncn(C)n8)cc7)CC6)C5)C4=O)cc23)cn1 [Example 10, (S)-2-(3-(6-Isopropoxypyridin-3-yl)-1H-indazol-5-yl)-7-(2-(4-(4-(1-methyl-1H-1,2,4-triazol-3-yl)phenyl)-3,6-dihydropyridin-1 (2H)-yl)-2-oxoethyl)-2,7-diazaspiro[4.4]nonan-1-one] | ≤ 500 nM | ≥ 1000 nM | ≤ 500 nM | ≤ 50 nM | ≤ 50 nM | ≤ 500 nM | 500 to 1000 nM | ≥ 1000 nM | ≤ 500 nM |
